Laboratory results: article PMC9950431, “A bivalent remipede toxin promotes calcium release via ryanodine receptor activation” (Nature Communications, 2023)
No end group written: not given here.

Assays:
RyR1 [1] = target: T1, RyR1 (Oryctolagus cuniculus, UniProt P11716); experiment: Single channel electrophysiology of RyR1 channels inserted into lipid bilayers (exposure to peptide); format: biochemical, New Zealand white rabbit (skeletal SR); conditions: +40 mV
T1 construct: skeletal SR vesicles were isolated from the back and leg muscles of mature female New Zealand white rabbits; from tissue; host or cells: rabbit back and leg skeletal muscle, sarcoplasmic reticulum vesicles
Protocol: Cardiac SR was prepared from mature female crossbred sheep hearts, and skeletal SR vesicles were isolated from the back and leg muscles of mature female New Zealand white rabbits[29],[54] with approval from the ANU Animal Experiment Ethics Committee Protocol Number A2015/35. […] Solutions for vesicle incorporation contained (mM): cis 230 caesium methanesulfonate (CsMS); 20 CsCl; 1 CaCl2 and 10 […] (TES) pH 7.4 and trans 30 CsMS; 20 CsCl; 1 CaCl2 10 TES; pH 7.4. […] Following incorporation, 200 mM CsMS was added to the trans solution and the cis solution exchanged with recording solution containing (mM): 230 CsMS; 20 CsCl; 0.001 CaCl2;10 TES and pH 7.4, with [Ca^2+] set by a [BAPTA] determined using a Ca^2+ electrode. The cytoplasmic and luminal solutions contained 1 μM and 1 mM Ca^2+ respectively, with symmetrical 250/250 mM CsMS. Bilayer voltage was switched between +40 mV and −40 mV (cytoplasmic voltage relative to grounded luminal solution) every 30 s. The activity of the RyR channels used here included 1 µM Ca^2+ in the cytoplasmic solution and 1 mM Ca^2+ in the luminal solution[29],[55]. Electrophysiology experiments were analysed using Channel 2 (P.W. Gage, M. Smith, Australian National University) and Channel 3 (N.W. Laver, University of Newcastle, Australia) software, available from the authors upon request. Statistical analyses were performed using Microsoft Excel (Office 365). […] Following most incorporation events, a single channel only was active in the bilayer and channel open probability (Po), mean open time (To), mean closed time (Tc) and open event frequency (Fo) were measured. When 2–4 channels were active in a bilayer, PO was approximated from the fractional mean current (I’F), i.e., mean current divided by maximum current. I’F is equal to PO in a single channel and indicates the average PO of multiple channels in a bilayer. […] Experiments at UN also included a minority of multi-channel experiments. The bilayer rigs, solution composition, source of channels, data acquisition and analyses methods were all identical.
Statistical analysis of single channel data was performed using Excel spreadsheets and embedded Students t-test functions or a sign test as indicated in the graphs in Figs. 1 and 3.

RyR1 [2] = target: T1, RyR1; conditions: cited from earlier work
Protocol: Electrophysiology experiments were carried out to determine the potency of each peptide. […] It is known that the activity of I ...

ryanodine receptor = target: T2, ryanodine receptor (Oryctolagus cuniculus, UniProt P11716); experiment: Single channel recording, exposure to peptide (sheet "Supp Fig 11"; RyR isoform not given); format: biochemical; conditions: IpTxA; combined average 100pM, 1nM and 5nM; 7 listed values; sem 0.460531; t-test 3.72E-02; control = 1
T2 construct: skeletal SR vesicles were isolated from the back and leg muscles of mature female New Zealand white rabbits; from tissue; host or cells: rabbit back and leg skeletal muscle, sarcoplasmic reticulum vesicles
Source text: Supplement 41467_2023_36579_MOESM6_ESM.xlsx, sheet "Supp Fig 11" | column: mean Tc; mean To; mean Po; rel Tc; rel To; rel Po

[3] = test system: sarcoplasmic reticulum (SR) in mouse extensor digitorum longus (EDL) fibers; experiment: SR Ca2+ leak in mechanically-skinned EDL muscle fibers (total SR Ca2+ content, [CaT]SR, after 1 min leak); format: cell-based, mouse (C57/Bl6)
Source text: All experiments were approved by The University of Queensland Animal Ethics Committees. Male and female C57/Bl6 2–6-month-old mice were sacrificed by asphyxiation via CO2 exposure and the EDL muscles were rapidly excised. The EDL was pinned at resting length in a petri dish lined with Sylgard 184 (Dow Corning, Midland, MI) and immersed in paraffin oil (Ajax Chemicals, Sydney, Australia). Segments of individual fibers were mechanically skinned using jeweler’s forceps and pinned out unstretched under oil[37]–[39]. The skinned fiber was then mounted at 120% of resting length on a force transducer (Myotronic UG, Heidelberg, Germany) before transfer to a 2-ml Perspex bath containing standard K^+-based solution that broadly mimics the intracellular milieu. […] All chemicals were purchased from Sigma-Aldrich (St Louis, MO, USA) unless specified otherwise.
Variations of the standard solution were prepared. To deplete the caffeine releasable Ca^2+ (“full release solution”), 30 mM caffeine was added, [Mg^2+] was lowered to 0.05 mM (total Mg^2+ of 2.1 mM) and free EGTA was adjusted to 0.5 mM (pCa 8.5) to chelate released Ca^2+. To measure the maximum force produced by the skinned fiber, all HDTA was replaced by EGTA (relaxing solution) or CaEGTA (maximum Ca^2+ activating solution). The relaxing solution contained 50 mM EGTA and no added Ca^2+ (pCa > 9) and the maximum Ca^2+-activating solution contained 49.5 mM Ca^2+ (pCa 4.7), with total Mg^2+ of 10.3 and 8.1 mM, respectively, to maintain the free [Mg^2+] at 1 mM. A “leak solution” was also prepared, where [Mg^2+] set at 0.1 mM (total Mg^2+ of 3.4 mM) to increase the PO of RyR and with 2 mM EGTA (pCa ~8.5) to chelate leaky Ca^2+ from the SR. […] The BAPTA solution used to pre-equilibrate fibers before lysing was similar to the standard K-HDTA solution but EGTA was replaced with 0.1–1.6 mM BAPTA[37],[39].
The skinned fiber was then equilibrated for 20 s in a solution with a set [BAPTA] before being placed in a freshly triturated emulsion of Triton X-100 in paraffin oil (TX–oil) (10% v/v). The Ca^2+ released upon the membrane lysing rapidly binds to the known amount of BAPTA present within the fiber and to other sites, predominantly troponin C (TnC). The pre-equilibrating [BAPTA] was chosen such that the fiber produced a finite, non-maximal force response upon lysis. Pre-treatment of the fiber with “full release solution” allowed the non-SR Ca^2+ content of the skinned fiber to be assayed. The total amount of Ca^2+ present in the fiber could be calculated from the [BAPTA] in the equilibration solution and the magnitude of the force response. Data are presented as mean ± SD, with n denoting the number of fibers examined. Statistical significance (p < 0.05) was determined with One-way ANOVA.

RyR2 = test system: RyR2; set-up: method as in PMID 21323602; conditions: cited from earlier work
RyR1 [4] = test system: RyR1; set-up: method as in PMID 21323602; conditions: cited from earlier work
TRPV1 = conditions: cited from earlier work

T1 sequence (P11716 whole entry): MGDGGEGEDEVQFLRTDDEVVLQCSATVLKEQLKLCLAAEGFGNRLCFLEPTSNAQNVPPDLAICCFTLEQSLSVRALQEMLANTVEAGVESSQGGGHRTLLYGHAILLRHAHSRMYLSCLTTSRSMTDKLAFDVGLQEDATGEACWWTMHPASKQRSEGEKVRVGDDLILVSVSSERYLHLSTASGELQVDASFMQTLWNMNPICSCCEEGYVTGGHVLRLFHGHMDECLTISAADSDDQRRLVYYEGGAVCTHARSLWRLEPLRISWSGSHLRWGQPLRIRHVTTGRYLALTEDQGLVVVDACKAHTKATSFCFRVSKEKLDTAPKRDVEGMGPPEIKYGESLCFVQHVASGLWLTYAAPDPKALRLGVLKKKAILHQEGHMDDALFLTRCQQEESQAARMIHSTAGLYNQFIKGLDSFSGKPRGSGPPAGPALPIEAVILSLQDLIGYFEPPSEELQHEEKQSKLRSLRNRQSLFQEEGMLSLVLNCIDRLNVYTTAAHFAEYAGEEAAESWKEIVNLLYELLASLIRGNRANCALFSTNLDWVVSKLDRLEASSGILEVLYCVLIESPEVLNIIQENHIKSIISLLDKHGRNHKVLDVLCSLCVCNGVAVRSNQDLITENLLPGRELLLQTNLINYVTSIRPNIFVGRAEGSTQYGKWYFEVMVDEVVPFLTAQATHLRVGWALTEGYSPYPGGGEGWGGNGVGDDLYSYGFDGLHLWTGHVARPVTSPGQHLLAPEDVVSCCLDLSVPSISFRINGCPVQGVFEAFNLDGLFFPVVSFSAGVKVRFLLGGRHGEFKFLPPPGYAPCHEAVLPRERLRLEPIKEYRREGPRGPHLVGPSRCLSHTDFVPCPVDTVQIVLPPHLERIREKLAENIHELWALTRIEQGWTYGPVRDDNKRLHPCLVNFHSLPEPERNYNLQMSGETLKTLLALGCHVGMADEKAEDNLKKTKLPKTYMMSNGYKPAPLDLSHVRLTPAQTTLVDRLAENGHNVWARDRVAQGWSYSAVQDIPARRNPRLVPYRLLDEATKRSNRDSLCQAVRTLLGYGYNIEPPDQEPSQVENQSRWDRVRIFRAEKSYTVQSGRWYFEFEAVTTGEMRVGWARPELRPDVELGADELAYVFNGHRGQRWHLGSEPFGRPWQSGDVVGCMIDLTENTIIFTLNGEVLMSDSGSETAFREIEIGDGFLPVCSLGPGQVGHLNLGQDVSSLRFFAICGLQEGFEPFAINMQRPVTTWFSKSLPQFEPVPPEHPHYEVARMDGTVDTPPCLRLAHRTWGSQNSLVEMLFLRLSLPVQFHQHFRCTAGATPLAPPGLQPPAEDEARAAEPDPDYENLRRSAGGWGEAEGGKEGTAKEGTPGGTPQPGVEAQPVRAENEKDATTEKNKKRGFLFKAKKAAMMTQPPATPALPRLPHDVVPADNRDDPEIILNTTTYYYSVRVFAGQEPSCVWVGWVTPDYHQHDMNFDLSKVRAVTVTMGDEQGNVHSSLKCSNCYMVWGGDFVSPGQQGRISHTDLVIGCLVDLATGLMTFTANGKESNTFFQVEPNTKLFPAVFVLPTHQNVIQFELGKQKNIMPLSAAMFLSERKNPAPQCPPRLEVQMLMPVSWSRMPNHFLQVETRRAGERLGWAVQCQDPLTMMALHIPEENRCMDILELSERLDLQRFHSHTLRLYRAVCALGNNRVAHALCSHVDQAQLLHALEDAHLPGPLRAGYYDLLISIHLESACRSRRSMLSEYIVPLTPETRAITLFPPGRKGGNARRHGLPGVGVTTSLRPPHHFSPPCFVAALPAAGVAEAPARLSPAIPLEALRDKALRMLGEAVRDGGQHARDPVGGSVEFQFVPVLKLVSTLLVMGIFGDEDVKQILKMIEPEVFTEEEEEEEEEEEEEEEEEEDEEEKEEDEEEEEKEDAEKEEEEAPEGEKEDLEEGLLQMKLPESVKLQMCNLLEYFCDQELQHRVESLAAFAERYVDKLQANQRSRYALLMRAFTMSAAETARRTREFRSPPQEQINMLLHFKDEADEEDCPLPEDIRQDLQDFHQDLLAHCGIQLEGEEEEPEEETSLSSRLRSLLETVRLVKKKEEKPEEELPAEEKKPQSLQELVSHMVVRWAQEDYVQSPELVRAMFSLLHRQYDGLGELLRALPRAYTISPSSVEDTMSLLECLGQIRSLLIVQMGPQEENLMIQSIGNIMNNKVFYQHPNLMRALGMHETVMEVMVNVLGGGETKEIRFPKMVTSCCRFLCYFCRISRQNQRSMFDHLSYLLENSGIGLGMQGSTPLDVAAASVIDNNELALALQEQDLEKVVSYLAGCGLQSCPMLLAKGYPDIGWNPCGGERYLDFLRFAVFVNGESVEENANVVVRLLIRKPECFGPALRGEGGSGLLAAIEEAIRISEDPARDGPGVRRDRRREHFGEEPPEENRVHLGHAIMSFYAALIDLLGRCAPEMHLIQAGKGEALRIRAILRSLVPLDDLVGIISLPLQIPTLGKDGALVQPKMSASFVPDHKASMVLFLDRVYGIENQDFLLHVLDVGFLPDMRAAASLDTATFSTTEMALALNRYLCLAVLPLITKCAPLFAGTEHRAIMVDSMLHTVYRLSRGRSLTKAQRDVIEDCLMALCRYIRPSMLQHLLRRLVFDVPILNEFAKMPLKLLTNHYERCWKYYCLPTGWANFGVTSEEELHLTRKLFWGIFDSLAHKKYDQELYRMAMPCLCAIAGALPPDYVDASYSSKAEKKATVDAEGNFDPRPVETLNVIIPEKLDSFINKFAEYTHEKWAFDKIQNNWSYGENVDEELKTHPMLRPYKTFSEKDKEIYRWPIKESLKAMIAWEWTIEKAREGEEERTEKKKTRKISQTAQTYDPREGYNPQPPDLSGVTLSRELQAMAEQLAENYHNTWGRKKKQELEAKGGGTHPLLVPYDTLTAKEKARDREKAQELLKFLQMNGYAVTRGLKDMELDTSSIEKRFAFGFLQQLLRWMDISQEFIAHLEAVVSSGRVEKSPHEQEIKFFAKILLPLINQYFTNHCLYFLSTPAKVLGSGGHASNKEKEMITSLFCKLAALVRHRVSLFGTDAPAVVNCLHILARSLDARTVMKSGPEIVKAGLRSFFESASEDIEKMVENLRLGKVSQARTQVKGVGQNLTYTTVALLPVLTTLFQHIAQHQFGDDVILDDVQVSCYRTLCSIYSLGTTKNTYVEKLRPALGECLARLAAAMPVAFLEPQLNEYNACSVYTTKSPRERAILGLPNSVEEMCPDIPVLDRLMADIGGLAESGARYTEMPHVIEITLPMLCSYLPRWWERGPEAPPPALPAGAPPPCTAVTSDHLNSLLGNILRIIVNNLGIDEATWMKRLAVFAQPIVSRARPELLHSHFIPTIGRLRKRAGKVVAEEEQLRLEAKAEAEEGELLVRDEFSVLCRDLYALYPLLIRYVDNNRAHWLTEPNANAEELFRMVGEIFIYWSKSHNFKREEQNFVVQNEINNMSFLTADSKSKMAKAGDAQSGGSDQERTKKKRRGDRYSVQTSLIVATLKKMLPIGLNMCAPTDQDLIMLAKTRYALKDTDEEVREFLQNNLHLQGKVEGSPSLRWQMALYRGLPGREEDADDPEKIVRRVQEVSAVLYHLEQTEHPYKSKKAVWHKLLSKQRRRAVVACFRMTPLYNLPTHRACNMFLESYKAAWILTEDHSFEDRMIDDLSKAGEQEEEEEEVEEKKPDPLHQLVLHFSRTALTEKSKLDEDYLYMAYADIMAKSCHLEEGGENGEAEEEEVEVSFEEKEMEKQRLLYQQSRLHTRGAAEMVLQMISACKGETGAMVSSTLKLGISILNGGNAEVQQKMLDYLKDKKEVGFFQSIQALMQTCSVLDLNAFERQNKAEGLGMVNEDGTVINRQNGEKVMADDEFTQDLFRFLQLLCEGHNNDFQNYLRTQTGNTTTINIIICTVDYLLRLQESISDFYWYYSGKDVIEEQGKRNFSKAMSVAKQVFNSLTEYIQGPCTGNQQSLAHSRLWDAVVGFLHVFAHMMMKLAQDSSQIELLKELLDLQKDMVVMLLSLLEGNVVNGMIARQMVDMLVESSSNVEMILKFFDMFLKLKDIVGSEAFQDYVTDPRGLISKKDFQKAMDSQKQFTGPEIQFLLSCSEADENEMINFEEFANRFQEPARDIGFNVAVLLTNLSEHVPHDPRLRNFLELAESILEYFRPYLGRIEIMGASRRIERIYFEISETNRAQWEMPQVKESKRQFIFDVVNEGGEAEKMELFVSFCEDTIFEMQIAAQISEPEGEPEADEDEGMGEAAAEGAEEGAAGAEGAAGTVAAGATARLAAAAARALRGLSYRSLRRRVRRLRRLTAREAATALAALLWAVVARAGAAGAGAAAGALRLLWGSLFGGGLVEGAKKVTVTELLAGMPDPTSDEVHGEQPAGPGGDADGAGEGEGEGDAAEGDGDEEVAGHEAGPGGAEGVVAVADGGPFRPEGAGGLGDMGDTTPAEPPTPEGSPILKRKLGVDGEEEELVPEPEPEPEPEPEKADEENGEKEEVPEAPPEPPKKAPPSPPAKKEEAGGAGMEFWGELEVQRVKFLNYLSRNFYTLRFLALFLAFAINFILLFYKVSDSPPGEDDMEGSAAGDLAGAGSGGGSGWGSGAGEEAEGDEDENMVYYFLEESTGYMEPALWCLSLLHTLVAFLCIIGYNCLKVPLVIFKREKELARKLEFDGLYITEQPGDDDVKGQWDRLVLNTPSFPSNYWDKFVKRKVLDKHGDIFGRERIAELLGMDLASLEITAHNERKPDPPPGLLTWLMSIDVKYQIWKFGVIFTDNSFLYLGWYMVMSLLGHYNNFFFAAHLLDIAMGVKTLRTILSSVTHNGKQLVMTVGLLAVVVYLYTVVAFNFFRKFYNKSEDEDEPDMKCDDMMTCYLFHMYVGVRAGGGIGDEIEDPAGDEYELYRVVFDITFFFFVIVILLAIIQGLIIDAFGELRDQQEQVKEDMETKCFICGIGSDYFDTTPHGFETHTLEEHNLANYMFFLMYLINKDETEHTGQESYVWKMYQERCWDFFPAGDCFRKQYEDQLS
T2 sequence (P11716 whole entry, canonical isoform): as the sequence (P11716 whole entry) above

## imperatoxin-A (GDCLPHLKRCKADNDCCGKKCKRRGTNAEKRCR; not fully specified; ends and bridges not checked; UniProt P59868 1-33, looked up) [IpTxA, member of the calcin family of scorpion derived ICK toxins, recombinant (SUMO fusion), reference compound]
RyR1 [1]; 0.1 nM n=2, 1 nM n=3, 10 nM n=2 grouped (n=7, P=3.7E-02)
  activation of RyR1: show activation withn a similar range
RyR1 [1]; isolated domains and IpTxA
  activation of RyR1 channels: potent (pM to nM) activation of RyR1 channels
RyR1 [2]
  reversibility of activity: reversible
Ryanodine receptor
  mean rel Po: 1.9
[3]; 10 nM
  efficiency to increase SR Ca2+ leakage (order): Xt3a > Xt3a-D1 ~ IpTxA > Xt3a-D2
[3]; 10 nM peptide in leak solution, 1 min leak, mean ± SD, control leak 18 ± 7%
  depletion of [CaT]SR: 55 ± 18%
[3]; 10 nM peptide, 1 min leak, relative to Pre, fiber 2 of column
  Relative amount of total Ca2+ left in the SR ([CaT]SR): 17.9
[3]; 10 nM peptide, 1 min leak, relative to Pre, fiber 3 of column
  Relative amount of total Ca2+ left in the SR ([CaT]SR): 33.5
[3]; 10 nM peptide, 1 min leak, relative to Pre, fiber 4 of column
  Relative amount of total Ca2+ left in the SR ([CaT]SR): 46.4
[3]; 10 nM peptide, 1 min leak, relative to Pre, fiber 5 of column
  Relative amount of total Ca2+ left in the SR ([CaT]SR): 44.7
[3]; 10 nM peptide, 1 min leak, relative to Pre, fiber 6 of column
  Relative amount of total Ca2+ left in the SR ([CaT]SR): 44.3
[3]; 10 nM peptide, 1 min leak, relative to Pre, fiber 7 of column
  Relative amount of total Ca2+ left in the SR ([CaT]SR): 51.6
[3]; 10 nM peptide, 1 min leak, relative to Pre, fiber 8 of column
  Relative amount of total Ca2+ left in the SR ([CaT]SR): 48.5
[3]; 10 nM peptide, 1 min leak, relative to Pre, fiber 9 of column
  Relative amount of total Ca2+ left in the SR ([CaT]SR): 70.6
[3]; 10 nM peptide, 1 min leak, relative to Pre, fiber 10 of column
  Relative amount of total Ca2+ left in the SR ([CaT]SR): 71.5
[3]; 10 nM peptide, 1 min leak, relative to Pre, mean (n = 13 Xt3a, n = 10 others)
  Relative amount of total Ca2+ left in the SR ([CaT]SR), mean: 44.8
[3]; 10 nM peptide, 1 min leak, relative to [CaT]SR before the leak (Pre), fiber 1 of column
  Relative amount of total Ca2+ left in the SR ([CaT]SR): 19.4

B1: GSTm2: glutathione transferase reported to modulate RyR1 and RyR2 (protein, UniProt P28161 1-218, looked up)
Glutathione S-transferase Mu 2: MPMTLGYWNIRGLAHSIRLLLEYTDSSYEEKKYTMGDAPDYDRSQWLNEKFKLGLDFPNLPYLIDGTHKITQSNAILRYIARKHNLCGESEKEQIREDILENQFMDSRMQLAKLCYDPDFEKLKPEYLQALPEMLKLYSQFLGKQPWFLGDKITFVDFIAYDVLERNQVFEPSCLDAFPNLKDFISRFEGLEKISAYMKSSRFLPRPVFTKMAVWGNK
RyR2
  effect on RyR2 activity: strongly inhibits RyR2
RyR1 [4]
  effect on RyR1 activity: slightly increases the activity of RyR1

B2: DkTx: double-knot spider toxin with tandem repeat ICK structure, TRPV1 (peptide, UniProt P0CH43 1-79, looked up)
Tau-theraphotoxin-Hs1a: DCAKEGEVCSWGKKCCDLDNFYCPMEFIPHCKKYKPYVPVTTNCAKEGEVCGWGSKCCHGLDCPLAFIPYCEKYRGRND
TRPV1
  avidity on washout: high avidity, evidenced by persistent activity during washout
